According to patent US20260166016A1, “GPR139 RECEPTOR AGONIST, PREPARATION METHOD THEREFOR, AND APPLICATION THEREOF” (NEUBO APPTECH CO., LTD., priority 2022, published 2026):

Test system: acutely restrained mice
Assay: Pentobarbital sodium sleep test in mice under acute restraint stress
Type: in vivo, mouse
Settings: male C57BL/6J mice; gavage of 0.1, 0.5, 2.5 mg/mL solutions at 0.1 mL/10 g; 30 minutes later acute restraint for 3 hours; pentobarbital sodium 40 mg/kg i.p.; dose-dependent; FIG. 2
Source text: Mouse: Male C57BL/6J; 8 weeks old; Weight: 20-25 g; Quantity: 31 pieces
Group 1, acute restraint sleeping placebo group, 7 mice, fed with regular care.
Group 2, acute restraint sleeping+low-dose of compound NRB181 group, 8 mice. The mice were fasted and deprived of water during the acute restraint period, and were kept normally at other times.
Group 3, acute restraint sleeping+moderate-dose of compound NRB181 group, 8 mice. The mice were fasted and deprived of water during the acute restraint period, and were kept normally at other times.
Group 4, acute restraint sleeping+high-dose of compound NRB181 group, 8 mice. The mice were fasted and deprived of water during the acute restraint period, and were kept normally at other times.
19.3.1 Preparation of placebo one day before the experiment: 0.5% CMC sodium+1% Tween80+saline.
On the day before the experiment, a high-dose solution of compound NRB181 was prepared: 6 mg of NRB181 was weighed and dissolved in 2.4 mL of placebo to prepare a 2.5 mg/mL solution of NRB181. Sonicated for 10 minutes and stored at 4° C. for later use.
The day before the experiment, a moderate-dose solution of compound NRB181 was prepared: […] of the above high-dose solution was taken and added to a 2 mL placebo centrifuge tube, mixed well, a 0.5 mg/mL NRB181 solution was prepared, sonicated for 10 minutes, and stored at 4° C. for later use. […]

C[C@H](NC(=O)CNC(=O)c1cc(Cl)ccn1)c1c(F)cccc1F [NRB181]
sleep time of pentobarbital sodium anesthetized mice: significantly increased
